Data as given in US12246007B2, “Liquid bendamustine pharmaceutical compositions” (HOSPIRA AUSTRALIA PTY LTD, priority 2018, dated 2025).
Counter-ions that a name gives are not always drawn. Like-named read-outs stand apart in the source and are kept apart here.

Experiment: Solubility of bendamustine HCl in organic solvents (T0 assay after overnight rolling and filtration)
Assay type: physicochemical
Protocol: An initial study was performed to assess bendamustine HCl solubility and brief stability in various organic solvents. Amounts of approximately 415.4 mg bendamustine HCl API (active pharmaceutical ingredient) were weighed into 4 mL amber glass vials. 2 mL of each indicated test solvent was added to two of each of the vials. One of each set of two vials containing the same solvent was placed on a sample roller at 2-8° C., and the other vial in each set was placed on a sample roller at laboratory temperature overnight. The following day, the solution from each vial was filtered through a Pall, 0.2 μm Fluorodyne II (Hydrophilic modified PVDF) syringe filter into a fresh 4 mL amber glass vial.

Compound `Cn1c(CCCC(=O)O)nc2cc(N(CCCl)CCCl)ccc21` [Bendamustine HCl, 1H-benzimidazole-2-butanoic acid, 5-[bis(2-chloroethyl)amino]-1-methyl, monohydrochloride] has a solubility (2 °C, organic solvent or mixture, thermodynamic from solid, 1-methyl-2-pyrrolidinone, 2-8° C., read-out: Solubility) of 181 mg/mL, a solubility (2 °C, organic solvent or mixture, thermodynamic from solid, Absolute Ethanol, 2-8° C., read-out: Solubility) of 52.1 mg/mL and a solubility (2 °C, organic solvent or mixture, thermodynamic from solid, Benzyl alcohol, 2-8° C., read-out: Solubility) of 177 mg/mL. The solubility (2 °C, organic solvent or mixture, thermodynamic from solid, Dimethyl acetamide (EP)-Finar, 2-8° C., read-out: Solubility) was 180 mg/mL, the solubility (2 °C, organic solvent or mixture, thermodynamic from solid, Dimethyl acetamide (EP)-Panreac, 2-8° C., read-out: Solubility) was 182 mg/mL and the solubility (2 °C, organic solvent or mixture, thermodynamic from solid, Dimethyl acetamide (high purity)-Finar, 2-8° C., read-out: Solubility) was 178 mg/mL. For the same compound, the solubility (2 °C, organic solvent or mixture, thermodynamic from solid, Dimethyl sulfoxide, 2-8° C., read-out: Solubility) was 182 mg/mL, the solubility (2 °C, organic solvent or mixture, thermodynamic from solid, PEG 300, 2-8° C., read-out: Solubility) was 60.2 mg/mL and the solubility (2 °C, organic solvent or mixture, thermodynamic from solid, PEG 400, 2-8° C., read-out: Solubility) was 32.8 mg/mL. It also gave a solubility (2 °C, organic solvent or mixture, thermodynamic from solid, Propylene glycol (USP)-Croda, 2-8° C., read-out: Solubility) of 154 mg/mL, a solubility (2 °C, organic solvent or mixture, thermodynamic from solid, Propylene glycol (USP)-Dow, 2-8° C., read-out: Solubility) of 154 mg/mL and a solubility (2 °C, organic solvent or mixture, thermodynamic from solid, Propylene glycol (USP)-Merck, 2-8° C., read-out: Solubility) of 159 mg/mL. The solubility (2 °C, organic solvent or mixture, thermodynamic from solid, Propylene glycol, 2-8° C., read-out: bendamustine HCl solubility) was ~155 mg/mL, the solubility (Isopropyl alcohol, 2-8° C.) was 4.5 mg/mL and the solubility (PEG 300, organic solvent or mixture, thermodynamic from solid, read-out: bendamustine HCl solubility) was ~60 mg/mL. The solubility (PEG 400, organic solvent or mixture, thermodynamic from solid, read-out: bendamustine HCl solubility) was ~30 mg/mL, the solubility (Propylene glycol (USP)-Croda, 23° C.) was 170.3 mg/mL and the solubility (ethanol, organic solvent or mixture, thermodynamic from solid, read-out: bendamustine HCl solubility) was 50 to 60 mg/mL. The solubility (isopropyl alcohol, organic solvent or mixture, thermodynamic from solid, read-out: bendamustine HCl solubility) was ~5 mg/mL, the solubility (organic solvent or mixture, thermodynamic from solid, 1-methyl-2-pyrrolidinone, 23° C., read-out: Solubility) was 180 mg/mL and the solubility (organic solvent or mixture, thermodynamic from solid, 1-methyl-2-pyrrolidinone, both temperatures tested, API completely dissolved, read-out: bendamustine HCl solubility) was > 180 mg/mL. For the same compound, the solubility (organic solvent or mixture, thermodynamic from solid, Absolute Ethanol, 23° C., read-out: Solubility) was 61.1 mg/mL, the solubility (organic solvent or mixture, thermodynamic from solid, Benzyl alcohol, 23° C., read-out: Solubility) was 174 mg/mL and the solubility (organic solvent or mixture, thermodynamic from solid, Benzyl alcohol, both temperatures tested, API completely dissolved, read-out: bendamustine HCl solubility) was > 180 mg/mL. For the same compound, the solubility (organic solvent or mixture, thermodynamic from solid, Dimethyl acetamide (EP)-Finar, 23° C., read-out: Solubility) was 174 mg/mL, the solubility (organic solvent or mixture, thermodynamic from solid, Dimethyl acetamide (EP)-Panreac, 23° C., read-out: Solubility) was 180 mg/mL and the solubility (organic solvent or mixture, thermodynamic from solid, Dimethyl acetamide (high purity)-Finar, 23° C., read-out: Solubility) was 179 mg/mL. For the same compound, the solubility (organic solvent or mixture, thermodynamic from solid, Dimethyl sulfoxide, 23° C., read-out: Solubility) was 181 mg/mL, the solubility (organic solvent or mixture, thermodynamic from solid, Isopropyl alcohol, 23° C., read-out: Solubility) was 6.7 mg/mL and the solubility (organic solvent or mixture, thermodynamic from solid, PEG 300, 23° C., read-out: Solubility) was 64.5 mg/mL. It also gave a solubility (organic solvent or mixture, thermodynamic from solid, PEG 400, 23° C., read-out: Solubility) of 34.4 mg/mL, a solubility (organic solvent or mixture, thermodynamic from solid, Propylene glycol (USP)-Dow, 23° C., read-out: Solubility) of 166 mg/mL and a solubility (organic solvent or mixture, thermodynamic from solid, Propylene glycol (USP)-Merck, 23° C., read-out: Solubility) of 172 mg/mL. The solubility (organic solvent or mixture, thermodynamic from solid, Propylene glycol, 23° C., read-out: bendamustine HCl solubility) was ~170 mg/mL, the solubility (organic solvent or mixture, thermodynamic from solid, dimethyl acetamide, both temperatures tested, API completely dissolved, read-out: bendamustine HCl solubility) was > 180 mg/mL and the solubility (organic solvent or mixture, thermodynamic from solid, dimethyl sulfoxide, both temperatures tested, API completely dissolved, read-out: bendamustine HCl solubility) was > 180 mg/mL.
